Measured values taken from patent US20090298938A1, “USE OF SEMI SYNTHETIC ANALOGUES OF BOSWELLIC ACIDS FOR ANTICANCER ACTIVITY” (COUNCIL OF SCIENTIFIC & INDUSTRIAL RESEARCH, priority 2008, published 2009).

What was measured:
Type in all cases: cell-based, human
PC-3 cells = experiment: In vitro cytotoxicity, SRB assay, PC-3
Description: (§1) The semi-synthetic analogues of formula 1 have been subjected to in vitro cytotoxicity screening in a panel of human cancer cell lines using following methodology. The human cancer cell lines were obtained either from National Center for Cell Science, Pune or National Cancer Institute, Fredrick, Md., USA. Cells were grown in tissue culture flasks in complete growth medium (RPMI-1640 medium with 2 mM glutamine, 100 µg/ml streptomycin, pH 7.4, sterilized by filtration and supplemented with 10% sterilized fetal calf serum and 100 units/ml penicillin before use) at 37° C. in an atmosphere of 5% CO2 and 90% relative humidity in a carbon dioxide incubator. The cells at sub-confluent stage were harvested from flask by treatment with trypsin (0.05% trypsin in PBS containing 0.02% EDTA) and suspended in complete growth medium. Cells with cell viability of more than 97% by trypan blue exclusion technique were used for determination of cytotoxicity.
(§2) Test material were dissolved in DMSO (dimethyl sulphoxide) to obtain a stock solution of 2×10^−2M. The stock solution was serially diluted with complete growth medium containing 50 μg/ml of gentamycin to obtain working test solutions of required concentrations.
(§3) The suspension of human cancer cell lines of required cell density in complete growth medium was prepared and cell suspension (100 μl/well) of each cell line was added to wells of 96-well tissue culture plate. Suitable blanks and controls were also included. The plates were incubated for 24 hrs in a carbon dioxide incubator.
(§4) The working test solutions of different concentrations (100 μl/well) were added after 24 hr incubation. The plates were further incubated for 48-hrs after addition of the test materials. After incubation, the cell growth was stopped by gently layering of 50 μl of TCA (50% trichloroacetic acid) on top of the medium in all the wells. The plates were incubated at 4° C. for one hour to fix the cells attached to bottom of the wells. Liquids of all the wells were gently pipetted out and discarded. The plates were washed five times with distilled water to remove TCA, growth medium, low molecular weight metabolites, serum proteins etc. The plates were air dried.
(§5) Cell growth was measured by staining with sulforhodamine B dye (SRB). The SRB solution (100 μl, 0.4% in 1% acetic acid) was added to each well and the plates were incubated at room temperature for 30 minutes. The unbound SRB was quickly removed by washing the wells five times with 1% acetic acid solution and plates were air dried. Tris buffer (100 μl, 0.01 M, pH 10.4) was added to all the wells and plates were gently stirred for 5 minutes on a mechanical stirrer. The optical density was recorded on ELISA reader at 540 nm.
(§6) Cell growth in the presence of test material was calculated in terms of the percentage of growth inhibition. The in vitro cytotoxicity of four natural boswellic acid i.e. boswellic acid, acetyl boswellic acid, 11-keto-boswellic acids, acetyl-11-ketio-boswellic acid on various cancer cell lines has been examined and typical results are given in the succeeding table. Based on their cytotoxicity profile the analogues of formula 1 were studied for inhibition of cell proliferation by using MTT assay method. […] The induction of apoptosis in HL-60 cells was also validated by generation of DNA fragmentation.
(§7) Assay of cytotoxicity potential of test materials is a primary standard procedure for seeking lead molecules for development of anti-cancer leads. Human cancer cells after trypsinization into single cell suspension were grown in 96-well culture plate for 24 hr. Cells were treated with indicated doses of test analogues and incubated in CO2 incubator for 48 hr. Thereafter, cells were stained with sulforhodamine B dye, and the bound dye was eluted to measure the optical density indicating cell growth in Elisa Reader at 540 nm [Monks et al., 1991]. […]

Hep-2 cells = experiment: In vitro cytotoxicity, SRB assay, Hep-2
Description: as §1, §2, §3, §4, §5, §6, §7

[1] = system: SW-620 colon cancer cells; experiment: In vitro cytotoxicity, SRB assay, SW-620
Description: as §1, §2, §3, §4, §5, §6, §7

HT-29 colon cancer cells = experiment: In vitro cytotoxicity, SRB assay, HT-29
Description: as §1, §2, §3, §4, §5, §6, §7

[2] = system: Colo-205 colon cancer cells; experiment: In vitro cytotoxicity, SRB assay, Colo-205
Description: as §1, §2, §3, §4, §5, §6, §7

[3] = Conc. 5 × 10^5 (r27-r29: 5 × 10^−5), 48 hr, Table 1
[4] = Conc. 5 × 10^−5, 48 hr, natural boswellic acids

Row | Structure (SMILES) | Growth inhibition % PC-3 (PC-3 cells; [3]) [%] | Growth inhibition % Hep-2 (Hep-2 cells; [3]) [%] | Growth inhibition % SW-620 Colon [1, 3] [%] | Growth inhibition % HT-29 Colon (HT-29 colon cancer cells; [3]) [%] | Growth inhibition % Colo-205 Colon [2, 3] [%] | also measured
1 | CC1CCC2(C)CCC3(C)C(=CC(=O)C4C5(C)CCC(O)C(C)(C(=O)O)C5CCC43C)C2C1C (centres unmarked) [1, R = H, R1 = H, X = O] | 68 | 53 | 49 | 46 | 52 | 
2 | CC1CCC2(C)CCC3(C)C(=CC(=O)C4C5(C)CCC(OC(=O)CCC(=O)O)C(C)(C(=O)O)C5CCC43C)C2C1C (centres unmarked) [1,R3O = —COCH2CH2COOH, R1 = H, R4 + R5= O] | 38 | 7 | 0 | 3 | 1 | 
3 | CC1CCC2(C)CCC3(C)C(=CCC4C5(C)CCC(OC=O)C(C)(C(=O)O)C5CCC43C)C2C1C (centres unmarked) [1, R3O = COH, R1 = H, R4 = R5 = H] | 99 | 75 | 92 | 79 | 93 | 
4 | CC(=O)OC1CCC2(C)C(CCC3(C)C2CC=C2C4C(C)C(C)CCC4(C)CCC23C)C1(C)C(=O)O (centres unmarked) [1, R3O = —COCH3, R1 = H, R4 = R5 = H] | 54 | 41 | 38 | 34 | 34 | 
5 | CCC(=O)OC1CCC2(C)C(CCC3(C)C2CC=C2C4C(C)C(C)CCC4(C)CCC23C)C1(C)C(=O)O (centres unmarked) [1, R3O = —COCH2CH3, R1 = H, R4 = R5 = H] | 98 | 86 | 94 | 94 | 86 | 
6 | CCCC(=O)OC1CCC2(C)C(CCC3(C)C2CC=C2C4C(C)C(C)CCC4(C)CCC23C)C1(C)C(=O)O (centres unmarked) [1, R3O = COCH2CH2CH3, R1 = H, R4 = R5 = H] | 75 | 99 | 101 | 98 | 91 | 
7 | CC1CCC2(C)CCC3(C)C(=CC(=O)C4C5(C)CCC(OC=O)C(C)(C(=O)O)C5CCC43C)C2C1C (centres unmarked) [1, R3O = COH, R1 = H, R4 + R5 = O] | 99 | 56 | 70 | 62 | 76 | 
8 | CC(=O)O[C@@H]1CC[C@@]2(C)[C@@H](CC[C@]3(C)[C@@H]2C(=O)C=C2[C@@H]4[C@@H](C)[C@H](C)CC[C@]4(C)CC[C@]23C)[C@@]1(C)C(=O)O [Acetyl-11-keto-boswellic acid, reference compound] |  |  |  |  |  | Growth inhibition % PC-3 (PC-3 cells; [4]): 79%; Growth inhibition % Hep-2 (Hep-2 cells; [4]): 62%; Growth inhibition % SW-620 Colon [1, 4]: 91%; Growth inhibition % HT-29 Colon (HT-29 colon cancer cells; [4]): 91%; Growth inhibition % Colo-205 Colon [2, 4]: 89%
9 | CC(=O)OC1CCC2(C)C(CCC3(C)C2C(=O)C=C2C4C(C)C(C)CCC4(C)CCC23C)C1(C)C(=O)O (centres unmarked) [1, R3O = COCH3, R1 = H, R4 + R5 = O] | 60 | 50 | 48 | 45 | 56 | 
10 | CO[C@@]12[C@H](COC(N)=O)C3=C(C(=O)C(C)=C(N)C3=O)N1C[C@@H]1N[C@@H]12 [Mitomycin C, reference compound] |  |  |  |  |  | Growth inhibition % PC-3 (PC-3 cells; Conc. 1 × 10^6, Table 2): 24%; Growth inhibition % PC-3 (PC-3 cells; Conc. 1 × 10^7, Table 2): 18%; Growth inhibition % Hep-2 (Hep-2 cells; Conc. 1 × 10^6, Table 2): 46%; Growth inhibition % Hep-2 (Hep-2 cells; Conc. 1 × 10^7, Table 2): 12%; Growth inhibition % SW-620 Colon ([1]; Conc. 1 × 10^6, Table 2): 57%; Growth inhibition % SW-620 Colon ([1]; Conc. 1 × 10^7, Table 2): 27%; Growth inhibition % HT-29 Colon (HT-29 colon cancer cells; Conc. 1 × 10^6, Table 2): 33%; Growth inhibition % HT-29 Colon (HT-29 colon cancer cells; Conc. 1 × 10^7, Table 2): 19%; Growth inhibition % Colo-205 Colon ([2]; Conc. 1 × 10^6, Table 2): 28%; Growth inhibition % Colo-205 Colon ([2]; Conc. 1 × 10^7, Table 2): 41%
11 | C[C@H]1[C@H](C)CC[C@]2(C)CC[C@]3(C)C(=CC(=O)[C@@H]4[C@@]5(C)CC[C@@H](O)[C@](C)(C(=O)O)[C@@H]5CC[C@]43C)[C@H]12 [11-keto-boswellic acid, reference compound] |  |  |  |  |  | Growth inhibition % PC-3 (PC-3 cells; [4]): 100%; Growth inhibition % Hep-2 (Hep-2 cells; [4]): 34%; Growth inhibition % SW-620 Colon [1, 4]: 28%; Growth inhibition % HT-29 Colon (HT-29 colon cancer cells; [4]): 38%; Growth inhibition % Colo-205 Colon [2, 4]: 50%
12 | CCC(=O)OC1CCC2(C)C(CCC3(C)C2C(=O)C=C2C4C(C)C(C)CCC4(C)CCC23C)C1(C)C(=O)O (centres unmarked) [1, R = COCH2CH3, R1 = H, R4 + R5 = O] | 99 | 65 | 75 | 67 | 80 | 
13 | C[C@H]1[C@H](C)CC[C@]2(C)CC[C@]3(C)C(=CC[C@@H]4[C@@]5(C)CC[C@@H](O)[C@](C)(C(=O)O)[C@@H]5CC[C@]43C)[C@H]12 [Boswellic acid] |  |  |  |  |  | Growth inhibition % PC-3 (PC-3 cells; [4]): 100%; Growth inhibition % Hep-2 (Hep-2 cells; [4]): 45%; Growth inhibition % SW-620 Colon [1, 4]: 61%; Growth inhibition % HT-29 Colon (HT-29 colon cancer cells; [4]): 69%; Growth inhibition % Colo-205 Colon [2, 4]: 86%
14 | CC1CCC2(C)CCC3(C)C(=CCC4C5(C)CCC(O)C(C)(C(=O)O)C5CCC43C)C2C1C (centres unmarked) [1, R3 = H, R1 = H, R4 = R5 = H] | 69 | 66 | 65 | 73 | 85 | 
15 | CC1CCC2(C)CCC3(C)C(=CC(=O)C4C5(C)CCC(OC(=O)CCC(=O)O)C(C)(C(=O)O)C5CCC43C)C2C1C (centres unmarked) [1,R3O = —COCH2CH2COOH R1 = H, R4 + R5 = O] | 60 | 17 | 2 | 16 | 29 | 
16 | CCCC(=O)OC1CCC2(C)C(CCC3(C)C2CC=C2C4C(C)C(C)CCC4(C)CCC23C)C1(C)C(=O)O (centres unmarked) [1,R3O = COCH2CH2CH3, R1 = H, R4 = R5 = H] | 80 | 65 | 83 | 54 | 71 | 
17 | CCCC(=O)OC1CCC2(C)C(CCC3(C)C2C(=O)C=C2C4C(C)C(C)CCC4(C)CCC23C)C1(C)C(=O)O (centres unmarked) |  |  |  |  | 94 | 
